Legend:
mice = assay: Acute toxicity by intravenous administration; format: in vivo; settings: intravenously administered to tail vein in ten mice at the dose of 30 mg/kg
Experimental: On the other hand, it was confirmed that the acute toxicity of all extent of the compounds of the present invention was more than 30 mg/kg by intravenous administration. Therefore, glycerol derivatives of the present invention may be considered to be sufficiently safe and suitable for medical use. For example, the mortality (dead/used) in glycerol derivatives of the present invention, i.e. compounds prepared in Example l(g), l(v), 5(d), 12(b), 12(n), 12(o), 12(s) and 12(x) was 0/10, 0/10, 0/10, 1/10/ 0/10, 0/10, 0/10 and 0/10, respectively, when each glycerol compound was intravenously administered to tail vein in ten mice at the dose of 30 mg/kg.

[1] = molecular target: phospholipase C obtained from lung of guinea-pig; assay: Inhibitory effect on phospholipase C (method of Rittenhouse-Simmons, 3H-labelled phosphatidyl-inositol substrate); format: biochemical; settings: enzyme from lung of guinea-pig; substrate 3H-myoinositol labelled phosphatidyl-inositol from rat liver microsome
Experimental: (3) Inhibitory effect on phospholipase C
The activity of the enzyme was examined by the method of Rittenhouse-Simmons by using ^3H-myoinsitol labelled phosphatidyl-inositol biosynthesized in microsome of liver in rat as substrate and phospholipase C obtained from lung of guinea-pig as enzyme [cf. J. Clin. Invest., 63, 580 (1979)].
(§1) The evaluation is conducted using the concentration of compounds of the present invention required to produce a 50% inhibition of each effect, i.e. IC50.

[2] = molecular target: phospholipase A2 obtained from lung of guinea-pig; assay: Inhibitory effect on phospholipase A2 (modified method of Shakir, 14C-arachidonyl phosphatidylcholine substrate); format: biochemical; settings: enzyme from lung of guinea-pig; substrate L-B-[1-14C]-arachidonyl-a'-stearoyl-phosphatidylcholine
Experimental: (2) Inhibitory effect on phospholipase A
The activity of the enzyme was examined by modification of the method of Shakir by using L-B-[1-^14C]- arachidonyl-a'-stearoyl-phosphatidylcholine as substrate and phospholipase A2 obtained from lung of guinea-pig as enzyme [cf. Anal. Biochem., 114, 67 (1981)].
as §1

[3] = molecular target: PAF-induced platelet aggregation (Cavia porcellus, UniProt P21556); assay: Inhibitory effect on PAF-induced platelet aggregation (method of Born, platelet rich plasma); format: cell-based; settings: platelet rich plasma from male guinea-pig; PAF (10 nM)-induced aggregation
Experimental: (1) Inhibitory effect on PAF-induced platelet aggregation
A mixture of 9 parts of blood obtained from male guinea-pig, and one part of 3.8X trisodium citrate was centrifuged for 10 minutes at 120 x g at room temperature to obtain platelet rich plasma (PRP). Using obtained PRP, PAF (lOnM)-induced aggregation was determined by the method of Born [cf. J. Physiol., 162, 67 (1962)].
as §1

Sequence of PAF-induced platelet aggregation (P21556 whole entry): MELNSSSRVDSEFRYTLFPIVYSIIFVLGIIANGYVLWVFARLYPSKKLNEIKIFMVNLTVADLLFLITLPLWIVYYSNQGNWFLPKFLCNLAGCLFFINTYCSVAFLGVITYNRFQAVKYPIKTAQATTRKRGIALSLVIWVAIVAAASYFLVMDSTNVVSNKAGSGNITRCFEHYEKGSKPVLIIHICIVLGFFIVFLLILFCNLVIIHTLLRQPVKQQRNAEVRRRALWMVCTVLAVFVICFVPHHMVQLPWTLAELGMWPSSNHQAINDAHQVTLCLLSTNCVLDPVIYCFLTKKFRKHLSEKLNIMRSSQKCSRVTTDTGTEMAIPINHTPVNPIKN

Row | Compound | mortality (dead/used) (mice) | IC50 [1] [µM] | IC50 [2] [µM] | IC50 [3] [µM]
1 | CCCCCCCCCCCCCCCCOCC(COCCCC[N+](C)(C)C)OC(=O)c1ccccc1 (racemic) [12 (n), (2RS)-l-0-hexadecyl-2-0-benzoyl-3-0-[4-(N,N,N-trimethylammonio)-butyl]glycerol halide] | 0/10 | – | – | –
2 | CCCCCCCCCCCCCCCCOCC(COC(=O)CCC[N+](C)(C)C)OCc1ccccc1 (racemic) [1 (v), (2RS)-1-0-hexadecyl-2-0-benzyl-3-0-[4-(N,N,N-trimethylammonio)-butyryl]glycerol halide] | 0/10 | – | – | –
3 | (2RS)-1-0-hexadecyl-2-[ethoxy(thiocarbonyl)thio]-3-0-[4-(N,N,N-trimethylammonio)butyl]-1,3-propanediol halide [12 (x)] | 0/10 | 200 | 240 | 3.8
4 | CCCCCCCCCCCCCCCCOCC(O)COCCCC[N+](C)(C)C (racemic) [5 (d), (2RS)-1-0-hexadecyl-3-0-[4-(N,N,N-trimethylammonio)butyl]glycerol halide] | 0/10 | 660 | 240 | –
5 | CCCCCCCCCCCCCCCCOCC(COCCCC[N+](C)(C)C)OCc1ccccc1 (racemic) [1 (g), (2RS)-l-0-hexadecyl-2-0-benzyl-3-0-[4-(N,N,N-trimethylammonio)butyl]glycerol chloride] | 0/10 | 180 | 130 | –
6 | CCCCCCCCCCCCCCCCOCC(COCCCC[N+](C)(C)C)SCC (racemic) [12 (s), (2RS)-l-0-hexadecyl-2-ethylthio-3-0-[4-(N,N,N-trimethylammonio)-butyl]-1,3-propanediol halide] | 0/10 | – | – | –
7 | CCCCCCCCCCCCCCCCOCC(COCCCC[N+](C)(C)C)OC(=O)NC (racemic) [12 (o), (2RS)-1-0-hexadecyl-2-0-(N-methylcarbaraoyl)-3-0-[4-(N,N,N-trimethylammonio)butyl]glycerol halide] | 0/10 | – | – | –
8 | CCCCCCCCCCCCCCCCSCC(COCCCC[N+](C)(C)C)OCc1ccccc1 (racemic) [12 (b), (2RS)-1-hexadecylthio-2-0-benzyl-3-0-[4-(N,N,N-trimethylammanio)-butyl]-2,3-propanediol halide] | 1/10 | – | – | –
